Data from article PMC12631437, “Evaluation of the Activity of 4‑Quinolones against Multi-Life Stages of Plasmodium spp” (ACS Omega, 2025).
“And” between values parts separate entries of the source, which are not always exact repeats. Equal entries are not always repeated. Where two headings read alike, the source gives them in different places.

Assays:
[1] = test system: P. falciparum multidrug-resistant strains; test: SYBR Green growth assay, summary over panel of resistant strains; type: cell-based; settings: Plasmodium falciparum
Procedure: (§1) Healthy blood samples for parasite culture were obtained from voluntary donors (approved under protocol #28176720.9.0000.0011), processed to remove white blood cells, and stored at 2 °C–8 °C for up to 15 days. Parasite strains SB1-A6, 7G8, V1/S, and HB3 were acquired from BEI-MR4, while the ATQ R1 strain, carrying a V259L gene mutation, was generated in-house. Infected erythrocytes were cultured in RPMI 1640 medium supplemented with Hepes, sodium bicarbonate, glucose, Albumax, and gentamicin, […], and incubated in a 5% CO2, 5% O2, and 90% N2 gas mixture at 37 °C with daily medium changes. Parasitemia was monitored using Giemsa-stained blood smears.
Bioassays were conducted with synchronized ring-stage parasites using sorbitol synchronization. Antimalarial compounds were evaluated in 96-well plates, and parasite growth was assessed using a SYBR Green-based fluorescence assay The assays were conducted when the parasite quantity reached at least 70% of the ring stage. […]
To assess parasite growth, the culture medium was replaced with a lysis solution (Trisbase: 49.31%, EDTA: 30.00%, Saponin: 0.16%, Triton: 0.02%) containing the fluorescent dye SYBR Green (Sigma). […] The IC50 values were determined using concentration–response curves generated in GraphPad 8 software. […]

[2] = test system: P. falciparum ATQ_R1 strain; test: SYBR Green growth assay, asexual blood stages, ATQ_R1 strain; type: cell-based, Plasmodium falciparum; settings: for IC50: Plasmodium falciparum
Procedure: as §1
(§2) Bioassays were conducted with synchronized ring-stage parasites using sorbitol synchronization. Antimalarial compounds were evaluated in 96-well plates, and parasite growth was assessed using a SYBR Green-based fluorescence assay The assays were conducted when the parasite quantity reached at least 70% of the ring stage. Compounds were initially added at specific concentrations in the first wells, followed by serial dilution (1:2) ranging from 20 μM to 0.009 μM. Subsequently, a solution containing parasites in RPMI medium at a hematocrit of 2% was added to each well, and the parasites were then incubated for 72 h.
(§3) To assess parasite growth, the culture medium was replaced with a lysis solution (Trisbase: 49.31%, EDTA: 30.00%, Saponin: 0.16%, Triton: 0.02%) containing the fluorescent dye SYBR Green (Sigma). After a 30 min incubation, fluorescence readings were taken to determine the 50% inhibitory concentration (IC50) of parasite growth. The IC50 values were determined using concentration–response curves generated in GraphPad 8 software. Additionally, the resistance index was calculated by comparing IC50 values obtained for the sensitive 3D7 strain with those of the resistant strains.

[3] = Mitochondrial toxicity, HepG2 cells cultured in glucose or galactose (resazurin); type: cell-based; settings: human, 3.125–50 μM, read-out: cell viability
Procedure: To evaluate mitochondrial toxicity, HepG2 cells were cultured in RPMI-1640 medium under two metabolic conditions: one group was maintained in standard RPMI supplemented with 2 g/L glucose (glucose condition), while the second group was gradually adapted to rely on galactose as the primary energy source. For this adaptation, glucose levels were reduced by 20% every 2 days until reaching a final concentration of 20% of the original glucose amount. On the day of the assay, the […] cells were cultured in glucose-free RPMI medium supplemented with 10 mM galactose. When cells reached 80% confluence, they were detached using 2 mL of trypsin-EDTA solution (0.2 g of EDTA) for 5 min at 37 °C, then resuspended in fresh medium and centrifuged at 100 × g for 1 min. After centrifugation, cells were counted using a Neubauer chamber and seeded at […] per well in 96-well plates containing 180 μL of culture medium. Plates were incubated at 37 °C with 5% CO2 for 12–16 h to allow for cell adhesion. […] After treatment, 40 μL of a 0.15 mg/mL resazurin solution (RSZ) was added to each well and incubated for an additional 5 h. RSZ is a nontoxic, cell-permeable blue dye that is reduced by metabolically active cells to highly fluorescent pink resorufin. Fluorescence was measured using a fluorimeter with excitation/emission at 560/590 nm. Cell viability was calculated relative to untreated controls (set at 100%), determined using GraphPad Prism 8.

[4] = test system: P. falciparum SB1-A6 strain; test: SYBR Green growth assay, asexual blood stages, SB1-A6 strain; type: cell-based, Plasmodium falciparum
Procedure: as §1, §2, §3

[5] = test system: P. berghei sexual phases in An. stephensi; test: In vivo transmission-blocking assay, P. berghei infected CD1 mice, An. stephensi; parameters: species or system Plasmodium berghei; settings: 2 doses of 50 mg/kg 12 h apart
Procedure: For this assay, a colony of An. stephensi was used. The lab-reared An. stephensi was kept under controlled conditions, with a temperature of 26 °C ± 1 °C, a 12/12 h light/dark cycle, a relative humidity of 70% ± 10%, and fed a 30% sugar solution as needed.
Female CD1 mice (4 to 6 weeks old) were infected by intraperitoneal inoculation (i.p.) containing 10 million erythrocytes infected with P. berghei expressing the GFP fluorescent protein. After 4 days, when parasites in the sexual stages were detected via Giemsa-stained blood smears, mice with similar gametocytemia and parasitemia were randomly divided into three groups of two animals each. The groups of two mices were treated orally with compound 1 at two doses of 50 mg/kg, spaced 12 h apart. […] Following the second dose, mice were anesthetized and placed in individual cages containing approximately 50 female A. stephensi mosquitoes, which had been starved for 24 h before the assay. Blood feeding lasted for 30 min, after which unfed mosquitoes were removed. Engorged females were maintained in an insectary at 21 ± 1 °C and 60% relative humidity, receiving a 30% glucose solution.
A group of 10 mosquitoes was set aside to assess sporozoite development in salivary glands, following a protocol similar to the one described previously, with dissections performed 21 days postblood meal. Additionally, 10 μL of mouse blood was collected immediately after treatment with the compounds and incubated at room temperature for 15 min. Exflagellation was observed under optical microscopy to evaluate the effect of 4-quinolone-derived molecules on microgametocyte activity.

P. falciparum 7G8 strain = test: SYBR Green growth assay, asexual blood stages, 7G8 strain; type: cell-based, Plasmodium falciparum; settings: for IC50: Plasmodium falciparum
Procedure: as §1, §2, §3

[6] = test system: P. falciparum DHODH strain; test: SYBR Green growth assay, asexual blood stages, DHODH resistant mutant; type: cell-based, Plasmodium falciparum
Procedure: as §1, §2, §3

For `CCCCCCCCCCCc1cc(=O)c2ccccc2[nH]1` [compound 1, 2-Undecilquinolin-4(1H)-one], the IC50 ([1]; HB3, read-out: IC50 values) was 0.06 to 0.8 µM, the IC50 ([1]; TM90C6B, read-out: submicromolar activity) was 0.29 to 0.79 µM and the IC50 ([2]; 72 h) was 0.6 ± 0.1 µM. For the same molecule, the IC50 ([2]; read-out: IC50 (Figure S1)) was 0.8 µM, the “RI (resistance index)” value ([2]; ratio of IC50 ATQ_R1 to 3D7) was 3.0 and the viability at 24 h ([3]; HepG2 cells adapted to galactose, HepG2 in galactose) was < 0.5%. The viability at 24 h ([3]; HepG2 cells cultured in glucose, HepG2 in glucose) was > 50%, the IC50 ([4]; Plasmodium falciparum, 72 h) was 7 ± 1 µM and the “RI (resistance index)” value ([4]; ratio of IC50 SB1-A6 to 3D7) was 35. The “Prevalence of infection in An. stephensi mosquitoes (Positive)” value [5] was 70%, the “reduction in the infection rate (salivary glands)” value ([5]; 21 days postinfection) was 91% and the “reduction in the number of P. berghei sporozoites (in vivo)” value ([5]; 21 days postinfection, 50 mg/kg) was 91,30% and 91%. The “reduction in male exflagellation centers (in vivo)” value ([5]; blood at mosquito feeding, 50 mg/kg) was 85,17% and 85%, the IC50 (P. falciparum 7G8 strain; 7G8, strain assigned by order of panels, read-out: IC50 (Figure S1)) was 0.2 µM and the IC50 (P. falciparum 7G8 strain; 7G8 strain, 72 h, read-out: IC50) was 0.27 ± 0.01 µM. For the same molecule, the “RI (resistance index)” value (P. falciparum 7G8 strain; ratio of IC50 7G8 to 3D7) was 1.3, the IC50 ([6]; Plasmodium falciparum, 72 h) was 0.06 ± 0.01 µM and the “RI (resistance index)” value ([6]; ratio of IC50 DHODH to 3D7) was 0.3.
